Measured values published in PMC4367962 (Nature, 2014).

How the values were obtained:
[1] = test system: mir-155^LSLtTA lymphoma subcutaneous flank tumors; assay: mir-155^LSLtTA lymphoma subcutaneous flank tumor model in nude mice; format: in vivo; settings: early endpoint study; n = 3, pHLIP-anti155 n = 4
[2] = mouse, in vivo, iv

| Molecule | Onset of splenomegaly (spleen mass) [1] | Clearance route [2] | Kidney distribution [2] |
| --- | --- | --- | --- |
| C[C@H]1c2cccc(O)c2C(=O)C2=C(O)[C@]3(O)C(=O)C(C(N)=O)=C(O)[C@@H](N(C)C)[C@@H]3[C@@H](O)[C@@H]21 [DOX, doxycycline] | reduced the onset of splenomegaly |  |  |
| AAEQNPIYWARYADWLFTTPLLLLDLALLVDADEGT(CNPys)G [pHLIP] |  | much of the peptide is cleared by renal excretion | shows kidney targeting |
